From US11337970B2, “Inhibitors of indoleamine 2,3-dioxygenase and methods of their use” (BRISTOL-MYERS SQUIBB COMPANY, priority 2016, dated 2022) come the findings set out here.

A word on the IC50: it is the midpoint of a concentration-inhibition curve.

SMILES strings stand for the structures.

In the test the target is T1, indoleamine 2,3-dioxygenase (IDO) (Homo sapiens, UniProt P14902).
T1 construct: host or cells: HeLa cells stimulated with IFNγ (25 ng/mL)
Briefly: HeLa cell-based indoleamine 2,3-dioxygenase (IDO) assay (kynurenine production). Particulars: HeLa cells, IFNγ 25 ng/mL, 48 hour incubation, absorbance at 480 nm. The procedure: Assessment of inhibitor activity in HeLa cell-based indoleamine 2,3-dioxygenase (IDO) assay:
HeLa (ATCC® CCL-2) cells were obtained from the ATCC® and cultured in Dulbecco's Modified Eagle Medium supplemented with 4.5 g/L glucose, […] (#10-013-CV, Corning), 2 mM L-alanyl-L-glutamine dipeptide (#35050-061, Gibco), 100U/mL penicillin, 100 μg/mL streptomycin (#SV30010, HyClone) and 10% fetal bovine serum (#SH30071.03 HyClone). Cells were maintained in a humidified incubator at 37° C. in 5% CO2.
IDO activity was assessed as a function of kynurenine production as follows: HeLa cells were seeded in a 96-well culture plate at a density of 5,000 cells/well and allowed to equilibrate overnight. After 24 hours, the media was aspirated and replaced with media containing IFNγ (#285-IF/CF, R&D Systems) at a final concentration of 25 ng/mL. A serial dilution of each test compound was added to the cells in a total volume of 200 μL of culture medium. After a further 48 hour incubation, 170 μL of supernatant was transferred from each well to a fresh 96-well plate. 12.1 μL of 6.1N trichloroacetic acid (#T0699, Sigma-Aldrich) was added to each well and mixed, followed by incubation at 65° C. for 20 minutes to hydrolyze N-formylkynurenine, the product of indoleamine 2,3-dioxygenase, to kynurenine. The reaction mixture was then centrifuged for 10 mins at 500×g to sediment the precipitate. 100 μL of the supernatant was transferred from each well to afresh 96-well plate. 100 μl of 2% (w/v) p-dimethylaminobenzaldehyde (#15647-7, Sigma-Aldrich) in acetic acid (#A6283, Sigma-Aldrich) was added to each well mixed and incubated at room temperature for 20 mins. Kynurenine concentrations were determined by measuring absorbance at 480 nm and calibrating against an L-kynurenine (#K8625, Sigma-Aldrich) standard curve using a SPECTRAMAX® M2e microplate reader (Molecular Devices). The percentage activity at each inhibitor concentration was determined and IC50 values assessed using nonlinear regression.

T1 sequence (P14902 whole entry): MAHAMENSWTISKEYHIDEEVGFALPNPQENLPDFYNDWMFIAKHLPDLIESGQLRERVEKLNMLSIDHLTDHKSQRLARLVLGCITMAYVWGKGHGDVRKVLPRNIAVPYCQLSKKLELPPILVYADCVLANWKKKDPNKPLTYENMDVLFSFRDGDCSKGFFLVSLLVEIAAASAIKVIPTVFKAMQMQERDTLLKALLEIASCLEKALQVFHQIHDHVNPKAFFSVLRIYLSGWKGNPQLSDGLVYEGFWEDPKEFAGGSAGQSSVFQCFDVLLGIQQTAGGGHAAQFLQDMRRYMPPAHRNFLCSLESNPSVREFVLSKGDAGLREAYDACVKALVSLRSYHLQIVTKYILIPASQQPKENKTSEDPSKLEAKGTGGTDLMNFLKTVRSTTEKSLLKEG

Take `C[C@@H](c1nc2c(F)c(F)ccc2[nH]1)[C@H]1CC[C@@H](c2ccnc3ccc(F)cc32)CC1` [Example 41, 4-((1S,4s)-4-((R)-1-(4,5-difluoro-1H-benzo[d]imidazol-2-yl)ethyl)cyclohexyl)-6-fluoroquinoline]: it took 3.4 nM to reach half-maximal inhibition (IC50).
`C[C@@H](c1cn2ncccc2n1)[C@H]1CC[C@@H](c2ccnc3ccc(F)cc32)CC1` [Example 31, 6-fluoro-4-((cis)-4-((R)-1-(imidazo[1,2-b]pyridazin-2-yl)ethyl)cyclohexyl)quinoline] had a half-maximal inhibitory concentration (IC50) of 607 nM.
In turn, `C[C@@H](c1ncc2ccccn12)[C@H]1CC[C@@H](c2ccnc3ccc(F)cc32)CC1` [Example 27, 6-fluoro-4-((cis)-4-((R)-1-(imidazo[1,5-a]pyridin-3-yl)ethyl)cyclohexyl)quinoline] yielded an IC50 of 836 nM.
For `CCC(c1nc2ncc(Cl)cc2[nH]1)[C@H]1CC[C@@H](c2ccnc3ccc(C(F)(F)F)cc32)CC1` (single isomer, unassigned) [Example 22-1, 4-((cis)-4-(1-(6-chloro-1H-imidazo[4,5-b]pyridin-2-yl)propyl)cyclohexyl)-6-(trifluoromethyl)quinoline], the IC50 amounted to 2.4 nM.
Next, `C[C@@H](c1nnc2ccccn12)[C@H]1CC[C@@H](c2ccnc3ccc(F)cc32)CC1` [Example 26, 4-((cis)-4-((R)-1-([1,2,4]triazolo[4,3-a]pyridin-3-yl)ethyl)cyclohexyl)-6-fluoroquinoline]: 459 nM; `C[C@H](c1nc2ccc(Cl)cc2[nH]1)[C@H]1CC[C@@H](c2ccnc(C(F)(F)F)c2)CC1` (single isomer, unassigned) [Example 39-2, 6-chloro-2-(1-(4-(2-(trifluoromethyl)pyridin-4-yl)cyclohexyl)ethyl)-1H-benzo[d]imidazole]: 75.4 nM; `C[C@@H](c1nc2cc(Cl)c(Cl)cc2[nH]1)[C@H]1CC[C@@H](c2ccnc3ccc(F)cc32)CC1` [Example 44, 4-((1S,4s)-4-((R)-1-(5,6-dichloro-1H-benzo[d]imidazol-2-yl)ethyl)cyclohexyl)-6-fluoroquinoline]: 5.5 nM.
`C[C@@H](c1nc2cc(C(F)(F)F)cc(C(F)(F)F)c2[nH]1)[C@H]1CC[C@@H](c2ccnc3ccc(F)cc32)CC1` [Example 47, 4-((1S,4s)-4-((R)-1-(5,7-bis(trifluoromethyl)-1H-benzo[d]imidazol-2-yl)ethyl)cyclohexyl)-6-fluoroquinolme]: half-maximal inhibition (IC50) was put at 45.6 nM.
Consider `C[C@@H](c1nc2c(F)c(F)c(F)c(F)c2[nH]1)[C@H]1CC[C@@H](c2ccnc3ccc(F)cc32)CC1` [Example 43, 6-fluoro-4-((1S,4s)-4-((R)-1-(4,5,6,7-tetrafluoro-1H-benzo[d]imidazol-2-yl)ethyl)cyclohexyl) quinoline], for which the IC50 worked out at 3.5 nM.
As to `CC(c1nc2ccc(Cl)cc2[nH]1)C1CCC(c2ccnc3ncccc23)CC1` (single isomer, unassigned) [Example 35-2], half-maximal inhibition (IC50) was put at 14.3 nM.
On to `CCC(c1nc2ncc(Cl)cc2[nH]1)[C@H]1CC[C@@H](c2ccnc(F)c2C)CC1` (mixture of isomers) [Example 24, (±)-6-chloro-2-(1-((cis)-4-(2-fluoro-3-methylpyridin-4-yl)cyclohexyl)-3-propyl)-1H-imidazo[4,5-b]pyridine], for which the midpoint of inhibition, the IC50, lay at 7.5 nM.
`CCC(c1nc2ncc(Cl)cc2[nH]1)[C@H]1CC[C@@H](c2ccnc3ccc(C(F)(F)F)cc32)CC1` (single isomer, unassigned) [Example 22-2, 4-((cis)-4-(1-(6-chloro-1H-imidazo[4,5-b]pyridin-2-yl)propyl)cyclohexyl)-6-(trifluoromethyl)quinoline] registered an IC50 of 99.1 nM.
For the molecule `COC(=O)c1ccc2[nH]c([C@H](C)[C@H]3CC[C@@H](c4ccnc5ccc(F)cc54)CC3)nc2c1` [Example 50, methyl 2-((R)-1-((1s,4S)-4-(6-fluoroquinolin-4-yl)cyclohexyl)ethyl)-1H-benzo[d]imidazole-5-carboxylate], the 50% inhibitory concentration (IC50) came out at 2.1 nM.
